US20140045856A1, “4-Methyl-2,3,5,9,9b-pentaaza-cyclopenta[a]naphthalenes” (BOEHRINGER INGELHEIM INTERNATIONAL GMBH, priority 2012, published 2014)
Like-named read-outs stand apart in the source and are kept apart here.

Columns and labels:
[1] = biological target: PDE10 (Homo sapiens, UniProt Q9Y233); test: PDE10 assay with fluorescent substrate (IMAP, fluorescence polarization); format: biochemical
Source text: (§1) c) Phosphodiesterase (PDE) 2A and 10 Assay with Fluorescent Substrate
(§2) The PDE reaction cleaves cAMP to AMP. The IMAP system (Molecular Device) using fluorescence polarization (FP) as detection principle was used to measure enzyme activity. A fluorescent labeled cAMP was used as substrate for the reaction, generating a labeled AMP. The fluorescent AMP binds specifically to the large M(III)-based nano-particles which reduces the rotational speed of the substrate and thus increases its polarization.
(§3) The inhibition of PDE 2A or 10 enzyme activity was assessed using IMAP-Phosphodiesterase-cAMP fluorescence labeled substrate (Molecular Devices, Order No. R7506), IMAP TR-FRET screening express (Molecular Devices, Order No. R8160, the TR-FRET component will not be used) and PDE 2A or PDE10 protein expressed upon baculovirus infection in SF9 cells. The cells were incubated after infection for ˜3 days and protein production was confirmed by Western Blot. The cells were collected by centrifugation and the pellet frozen in liquid nitrogen before it was resuspended in PBS containing 1% Triton X-100 and protease inhibitors.
(§4) All reactions were performed in 384 well plates, Perkin Elmer black optiplates and IMAP reaction buffer with 0.1% Tween20 (kit component)
(§5) Compounds were serial diluted in DMSO. With an intermediate dilution step with reaction buffer DMSO concentration was reduced to achieve 1% DMSO in the assay reaction. Setup of the assay started with 10 μl enzyme (˜10 ng/well, depending on prep. batch), 5 μl compound, reaction was started by addition of 5 μl labeled cAMP (30 nM, final concentration), immediately mixed for 15 seconds on a Eppendorf mixmate (2000 rpm) followed by an incubation at room temperature for 90 minutes in the dark. Reaction is stopped by adding of 60 μl binding buffer for FP/cAMP (kit component).
(§6) Each assay plate contained wells with vehicle controls (1% DMSO) for the measurement of non-inhibited reaction (=100% control) and wells without enzyme as 0% controls.

[2] = biological target: PDE 10A (Homo sapiens, UniProt Q9Y233); test: Radioactive PDE10 assay ([3H]cAMP SPA); format: biochemical
Method: (§7) The activity of the positive control (minus the negative control=background) is set to 100% and activity in the presence of compound is expressed relative to these 100%.
(§8) IC50 are calculated with GraphPadPrism or other suited software setting the positive control as 100 and the negative control as 0. For calculation of IC50 usually 11 dilutions of the test compound are selected.
protein concentration: 75 pg/μl
In detail the protocol is as follows:
(§9) Into a 384 well plate (OptiPlate, white), the following components are pipetted (either manually or using automated pipetting devices):
(§10) 20 μl test-compound solution (test compound diluted in assay buffer at twofold the desired concentration)
+10 μl PDE 10A preparation (enzyme diluted in assay buffer to a concentration of 0.3 ng/μl protein)
+10 μl cAMP tracer (diluted in assay buffer to a concentration of 80 nM cAMP, specific activity ˜4 mCi/l)
After addition of all 3 components the plates are shortly spun and incubated at room temperature for 60 min. The reaction is stopped by the addition of 20 μl Yttrium SPA PDE Beads containing 18 mM zinc sulphate in water
PDE 10A protein is expressed upon baculovirus infection in SF9 cells. The cells have been incubated upon infection for ˜3 days and protein production was confirmed by Western Blot. The cells were collected by centrifugation and the pellet frozen in liquid nitrogen before it was resuspended in PBS containing 1% Triton X-100 and protease inhibitors.

[3] = Metabolic stability in pooled liver microsomes; format: in vitro ADME; details: human liver microsomes, 37° C., 1 mg/mL microsomal protein, test compound 1 μM, NADPH
Method: The metabolic stability of the compounds according to the invention has been investigated as follows:
The metabolic degradation of the test compound was assayed at 37° C. with pooled liver microsomes from various species. The final incubation volume of 100 μl per time point contains TRIS buffer pH 7.6 at room temperature (0.1 M), magnesium chloride (5 mM), microsomal protein (1 mg/mL for human and dog, 0.5 mg/mL for other species) and the test compound at a final concentration of 1 μM. Following a short preincubation period at 37° C., the reactions were initiated by addition of betanicotinamide adenine dinucleotide phosphate, reduced form (NADPH, 1 mM), and terminated by transferring an aliquot into solvent after different time points. […] The half-life was determined by the slope of the semi-logarithmic plot of the concentration-time profile.

[4] = biological target: T1, PDE2A (Homo sapiens, UniProt O00408); test: PDE 2A assay with fluorescent substrate (IMAP, fluorescence polarization); format: biochemical; details: read-out: PDE2 IC50
Source text: as §1, §2, §3, §4, §5, §6

[5] = biological target: T1, PDE2A; test: Radioactive PDE2 assay ([3H]cAMP SPA); format: biochemical
Method: a) Radioactive PDE2 Assay Protocol:
PDE 2A protein is expressed upon baculovirus infection in SF9 cells. The cells have been incubated upon infection for ˜3 days and protein production was confirmed by Western Blot. The cells were collected by centrifugation and the pellet frozen in liquid nitrogen before it was resuspended in PBS containing 1% Triton X-100 and protease inhibitors.
as §9, §10
+10 μl PDE 2A preparation (enzyme diluted in assay buffer to a concentration of 0.5 ng/μl protein)
+10 μl [^3H]cAMP (diluted in assay buffer to a concentration of 80 nM cAMP)
positive control: no inhibitor, DMSO at the concentration as used in the compound dilutions
negative control: no PDE 2 (SF9 lysate instead of SF9/PDE 2A lysate)
Calculation of % Inhibition:
as §7, §8

[6] = biological target: hERG channel (Homo sapiens, UniProt Q12809); test: hERG channel assay (whole-cell patch clamp, HEK293 cells transfected with hERG cDNA); format: cell-based; details: 35° C.
Source text: hERG (Human Ether-à-Go-Go-Related Gene)-Channel Assay
hERG channel inhibition of compounds of the present invention has been investigated as follows:
HEK (human embryonic kidney) 293 cells were stably transfected with hERG cDNA. Cells were superfused with a bath solution containing (mM): NaCl (137), KCl (4.0), MgCl2 (1.0), CaCl2 (1.8), Glucose (10), HEPES (10), pH 7.4 with NaOH. Patch pipettes were made from borosilicate glass tubing using a horizontal puller and filled with pipette solution containing (mM): K-aspartate (130), MgCl2 (5.0), EGTA (5.0), K2ATP (4.0), HEPES (10.0), pH 7.2 with KOH. Resistance of the microelectrodes was in the range between 2 and 5 MΩ.
Stimulation and Recording:
Membrane currents were recorded using an EPC-10 patch clamp amplifier and PatchMaster software. hERG-mediated membrane currents were recorded at 35° C., using the whole-cell configuration of the patch-clamp technique. Transfected HEK293 cells were clamped at a holding potential of −60 mV and hERG-mediated inactivating tail currents were elicited using a pulse pattern with fixed amplitudes (activation/inactivation: 40 mV for 2000 ms; recovery: […]; ramp to 40 mV in 2 ms; inactivating tail current: 40 mV for 50 ms) repeated at 15 s intervals. During each inter-pulse interval 4 pulses scaled down by a factor of 0.2 were recorded for a P/n leak subtraction procedure. […] compensation was employed up to a level that safely allowed recording devoid of ringing.
Compound Preparation and Application:
The different concentrations of the test compound were applied sequentially on each of the different cells investigated. A steady state level of baseline current was measured for at least 6 sweeps prior to the application of the first test compound concentration.
The test compound was dissolved in DMSO to yield a master stock solution which was diluted further in DMSO to stock solutions needed for the lower concentrations. Final dilutions in extracellular buffer were prepared freshly from these stocks by a 1:1000 dilution step each before starting the experiments.
Data analysis and IC50 determination:
Peak current amplitudes were measured 3 ms after the ramp to +40 mV. For baseline and each concentration the peak currents of the three last sweeps before application of the next concentration were averaged. Residual currents ( 1/10) were calculated for each cell as the fraction of actual average peak current and average baseline peak current.
The logistic concentration-response curve of the following form was fitted to the residual current data using a genetic algorithm:
C: actual concentration of compound (in μM) IC50: half-inhibitory concentration (in μM) p: Hill slope

[7] = Animal experiments and sample analysis: plasma, brain and CSF concentration; format: in vivo; details: rat; for concentration at 0.5 h: 0.5 h between administration and CSF sampling; for concentration at 0.5 h / concentration at 2 h: doses of 10.0 or 5 μmol/kg; for concentration at 2 h / Kp at 2 h: 2 h between administration and CSF sampling
Method: Test compounds were administered to animals (rat) different routes at doses of 10.0 or 5 μmol/kg, (both oral and intravenous). After compound administration, the animals were sacrificed in a CO2 chamber and CSF samples were carefully collected by puncture of the cisterna magna. Immediately after CSF sampling, blood was taken by heart puncture and brains were dissected out. Blood was collected in EDTA-coated microvettes and plasma was prepared by centrifugation. Concentration of the test compounds in plasma, CSF or brain homogenate was determined using HPLC-MS-MS.

[8] = brain, read-out: c(brain)/c(plasma)

hERG channel, sequence (Q12809 whole entry): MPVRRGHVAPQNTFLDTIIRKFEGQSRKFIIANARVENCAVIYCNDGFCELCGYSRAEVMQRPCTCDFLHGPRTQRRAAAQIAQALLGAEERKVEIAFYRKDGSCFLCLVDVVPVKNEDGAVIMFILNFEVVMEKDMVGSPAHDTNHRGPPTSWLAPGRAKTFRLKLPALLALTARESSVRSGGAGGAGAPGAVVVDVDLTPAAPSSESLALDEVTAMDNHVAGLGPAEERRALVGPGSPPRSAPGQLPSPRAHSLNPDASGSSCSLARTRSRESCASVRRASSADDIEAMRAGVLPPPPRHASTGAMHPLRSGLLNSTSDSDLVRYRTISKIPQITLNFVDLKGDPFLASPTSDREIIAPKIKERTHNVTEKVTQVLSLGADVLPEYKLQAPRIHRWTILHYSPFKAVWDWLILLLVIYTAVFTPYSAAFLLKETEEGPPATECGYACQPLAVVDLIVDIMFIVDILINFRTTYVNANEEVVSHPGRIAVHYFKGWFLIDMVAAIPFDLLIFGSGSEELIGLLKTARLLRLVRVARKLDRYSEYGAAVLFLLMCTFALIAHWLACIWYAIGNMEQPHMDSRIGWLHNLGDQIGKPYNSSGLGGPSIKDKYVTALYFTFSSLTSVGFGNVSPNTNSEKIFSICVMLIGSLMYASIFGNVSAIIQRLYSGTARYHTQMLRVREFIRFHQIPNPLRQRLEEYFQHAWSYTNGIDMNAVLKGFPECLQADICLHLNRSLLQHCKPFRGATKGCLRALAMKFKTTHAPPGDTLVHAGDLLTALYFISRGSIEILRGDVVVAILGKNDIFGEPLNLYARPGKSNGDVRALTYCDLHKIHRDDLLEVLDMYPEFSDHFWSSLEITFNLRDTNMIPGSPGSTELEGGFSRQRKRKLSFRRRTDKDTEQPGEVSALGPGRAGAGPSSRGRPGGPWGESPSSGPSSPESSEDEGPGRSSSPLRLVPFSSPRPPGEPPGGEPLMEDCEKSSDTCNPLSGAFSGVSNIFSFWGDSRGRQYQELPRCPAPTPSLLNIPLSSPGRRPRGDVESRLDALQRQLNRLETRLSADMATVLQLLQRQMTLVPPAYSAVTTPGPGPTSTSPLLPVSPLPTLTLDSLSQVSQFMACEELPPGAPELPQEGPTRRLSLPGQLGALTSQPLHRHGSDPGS
T1 sequence (O00408 whole entry, species assumed): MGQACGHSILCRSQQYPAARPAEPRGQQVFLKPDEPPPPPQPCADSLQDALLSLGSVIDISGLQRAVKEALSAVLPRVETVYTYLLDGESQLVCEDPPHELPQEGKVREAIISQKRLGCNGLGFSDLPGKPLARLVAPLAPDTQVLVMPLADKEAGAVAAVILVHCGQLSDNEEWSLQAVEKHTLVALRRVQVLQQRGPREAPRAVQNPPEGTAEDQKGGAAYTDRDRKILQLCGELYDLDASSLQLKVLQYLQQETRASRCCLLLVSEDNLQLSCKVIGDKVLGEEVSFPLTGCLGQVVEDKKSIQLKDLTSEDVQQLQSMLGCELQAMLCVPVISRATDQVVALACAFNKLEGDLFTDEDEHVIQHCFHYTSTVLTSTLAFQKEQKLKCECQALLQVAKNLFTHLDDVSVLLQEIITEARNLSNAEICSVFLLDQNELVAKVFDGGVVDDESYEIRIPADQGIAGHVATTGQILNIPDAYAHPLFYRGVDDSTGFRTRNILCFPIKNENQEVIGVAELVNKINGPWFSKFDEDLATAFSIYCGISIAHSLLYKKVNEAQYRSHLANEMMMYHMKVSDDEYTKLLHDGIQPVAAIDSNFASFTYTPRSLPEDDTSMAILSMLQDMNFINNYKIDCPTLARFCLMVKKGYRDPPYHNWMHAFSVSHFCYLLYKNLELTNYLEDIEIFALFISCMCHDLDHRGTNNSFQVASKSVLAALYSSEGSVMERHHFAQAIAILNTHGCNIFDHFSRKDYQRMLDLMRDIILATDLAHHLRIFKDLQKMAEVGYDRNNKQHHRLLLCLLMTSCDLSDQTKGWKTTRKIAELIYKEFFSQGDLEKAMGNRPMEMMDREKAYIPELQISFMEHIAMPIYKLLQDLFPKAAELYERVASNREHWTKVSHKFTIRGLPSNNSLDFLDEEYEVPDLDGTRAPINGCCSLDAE
PDE10, sequence (Q9Y233 whole entry, species assumed): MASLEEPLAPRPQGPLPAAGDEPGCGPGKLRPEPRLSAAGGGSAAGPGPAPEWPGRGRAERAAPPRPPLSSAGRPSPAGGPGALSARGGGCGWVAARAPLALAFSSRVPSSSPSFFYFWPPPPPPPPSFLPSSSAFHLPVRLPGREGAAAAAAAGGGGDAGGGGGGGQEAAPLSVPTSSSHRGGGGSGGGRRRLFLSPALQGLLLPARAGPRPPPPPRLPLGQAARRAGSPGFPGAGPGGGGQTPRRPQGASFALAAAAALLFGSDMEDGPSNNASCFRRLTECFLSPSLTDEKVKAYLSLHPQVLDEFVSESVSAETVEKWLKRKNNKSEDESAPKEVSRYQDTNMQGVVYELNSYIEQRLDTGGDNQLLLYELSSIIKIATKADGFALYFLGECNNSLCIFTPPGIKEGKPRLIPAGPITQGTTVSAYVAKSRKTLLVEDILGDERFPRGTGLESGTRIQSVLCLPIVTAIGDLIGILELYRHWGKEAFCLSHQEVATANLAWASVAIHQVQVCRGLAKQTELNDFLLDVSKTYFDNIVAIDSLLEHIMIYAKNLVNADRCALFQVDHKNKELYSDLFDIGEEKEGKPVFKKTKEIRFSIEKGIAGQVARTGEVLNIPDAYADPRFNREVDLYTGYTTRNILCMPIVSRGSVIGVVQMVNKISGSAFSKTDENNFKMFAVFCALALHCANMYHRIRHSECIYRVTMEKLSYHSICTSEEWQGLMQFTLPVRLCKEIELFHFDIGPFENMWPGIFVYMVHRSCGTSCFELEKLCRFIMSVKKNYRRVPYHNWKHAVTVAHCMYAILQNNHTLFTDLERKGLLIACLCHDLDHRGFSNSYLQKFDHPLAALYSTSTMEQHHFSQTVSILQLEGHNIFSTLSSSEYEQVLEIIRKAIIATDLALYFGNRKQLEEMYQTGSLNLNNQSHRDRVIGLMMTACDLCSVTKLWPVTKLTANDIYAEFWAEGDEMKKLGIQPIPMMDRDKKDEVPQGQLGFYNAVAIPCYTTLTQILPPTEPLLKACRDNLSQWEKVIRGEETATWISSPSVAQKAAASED
PDE 10A, sequence (Q9Y233 whole entry, species assumed): as above

SMILES | IC50 [1] | IC50 [2] | Half-life - t½ [3] | IC50 [4] | IC50 [5] | IC50 [6] | also measured
Cc1nc2cccnc2n2c(-c3cc(O)ccc3Cl)nnc12 [Example 1] | 355 nM | 421 nM | 2.17 h | – | – | – | –
Cc1ccc2nc(C)c3nnc(-c4cccc(O)c4)n3c2n1 [Example 3] | – | 411 nM | – | – | 155 nM | – | –
Cc1nc2cccnc2n2c(-c3cc(OCCC(C)O)ccc3Cl)nnc12 (stereo not shown) [Example 19] | – | 3010 nM | – | – | 146 nM | – | –
Cc1nc2cccnc2n2c(-c3cc(OC4CCOCC4)ccc3Cl)nnc12 [Example 20] | – | 2760 nM | 2.17 h | – | – | > 10000 nM | concentration at 0.5 h ([7]; brain, read-out: conc brain): 272 nM; concentration at 0.5 h ([7]; plasma, read-out: conc plasma): 338 nM; concentration at 0.5 h ([7]; read-out: conc CSF): 37 nM
Cc1nc2cccnc2n2c(-c3cc(O[C@H]4CCOC4)ccc3Cl)nnc12 [Example 24] | – | – | – | – | 138 nM | – | –
Cc1ccc2nc(C)c3nnc(-c4cc(OCCCO)ccc4Cl)n3c2n1 [Example 27] | 958 nM | 970 nM | – | – | – | > 10000 nM | –
Cc1ccc2nc(C)c3nnc(-c4cccc(OCCCO)c4)n3c2n1 [Example 36] | – | 850 nM | – | – | 219 nM | – | –
Cc1nc2cccnc2n2c(-c3cc(OCC4(C)COC4)ccc3Cl)nnc12 [Example 37] | – | 3080 nM | – | – | 171 nM | – | –
Cc1nc2cccnc2n2c(-c3cc(OC(C)C4CCOCC4)ccc3Cl)nnc12 (stereo not shown) [Example 38] | – | 1960 nM | – | – | 417 nM | – | –
Cc1nc2cccnc2n2c(-c3cc(OC4CCC(O)CC4)ccc3Cl)nnc12 (stereo not shown) [Example 39] | – | 2100 nM | – | – | 914 nM | – | –
Cc1nc2ccc(C3CC3)nc2n2c(-c3cc(OCC(C)(C)O)ccc3F)nnc12 [Example 47] | 852 nM | – | 2.17 h | 8 nM | – | > 10000 nM | concentration at 2 h ([7]; brain, read-out: conc brain): 441 nM; Kp at 2 h [7, 8]: 0.7; concentration at 2 h ([7]; plasma, read-out: conc plasma): 622 nM; concentration at 2 h ([7]; read-out: conc CSF): 22 nM; Kp at 2 h ([7]; read-out: c(CSF)/c(plasma)): 0.04
Cc1nc2cccnc2n2c(-c3cc(OCC4(O)CCC4)ccc3Cl)nnc12 [Example 49] | 3760 nM | – | 2.17 h | 33 nM | – | > 10000 nM | concentration at 2 h ([7]; brain, read-out: conc brain): 47 nM; Kp at 2 h [7, 8]: 0.2; concentration at 2 h ([7]; plasma, read-out: conc plasma): 239 nM; concentration at 2 h ([7]; read-out: conc CSF): 13 nM; Kp at 2 h ([7]; read-out: c(CSF)/c(plasma)): 0.06
Cc1nc2cccnc2n2c(-c3cc(CCC(C)(C)O)ccc3Cl)nnc12 [Example 64] | 3870 nM | – | 2.17 h | 45 nM | – | > 10000 nM | concentration at 2 h ([7]; brain, read-out: conc brain): 254 nM; Kp at 2 h [7, 8]: 0.5; concentration at 2 h ([7]; plasma, read-out: conc plasma): 783 nM; concentration at 2 h ([7]; read-out: conc CSF): 37 nM; Kp at 2 h ([7]; read-out: c(CSF)/c(plasma)): 0.06
Cc1nc2ccc(C3CC3)nc2n2c(-c3cc(C(C)(C)O)ccc3F)nnc12 [Example 76] | 1100 nM | – | 2.17 h | 21 nM | – | > 10000 nM | concentration at 2 h ([7]; brain, read-out: conc brain): 218 nM; Kp at 2 h [7, 8]: 0.5; concentration at 2 h ([7]; plasma, read-out: conc plasma): 463 nM; concentration at 2 h ([7]; read-out: conc CSF): 18 nM; Kp at 2 h ([7]; read-out: c(CSF)/c(plasma)): 0.04

More lines, main results first:

IC50 [1] | IC50 [2] | Half-life - t½ [3] | IC50 [4] | IC50 [5] | SMILES | IC50 [6] | also measured
33 nM | 40 nM | – | 3 nM | 4 nM | Cc1ccc2nc(C)c3nnc(-c4cc(O)ccc4Cl)n3c2n1 [Example 2] | – | –
256 nM | 441 nM | – | 120 nM | 138 nM | Cc1nc2cccnc2n2c(-c3cc(O)ccc3F)nnc12 [Example 4] | – | –
6360 nM | 2190 nM | 2.17 h | 95 nM | 53 nM | Cc1nc2cccnc2n2c(-c3cc(OCCCO)ccc3Cl)nnc12 [Example 13] | > 10000 nM | –
1120 nM | – | – | 112 nM | 40 nM | Cc1nc2cccnc2n2c(-c3cc(OCCO)ccc3Cl)nnc12 [Example 15] | – | –
7050 nM | 2820 nM | 2.17 h | 22 nM | 70 nM | Cc1nc2cccnc2n2c(-c3cc(OC4CCC(F)(F)CC4)ccc3Cl)nnc12 [Example 21] | > 10000 nM | –
– | – | – | 207 nM | 115 nM | Cc1nc2cccnc2n2c(-c3cc(OC4CCOC4)ccc3Cl)nnc12 (stereo not shown) [Example 22] | – | –
– | – | – | 216 nM | 71 nM | Cc1nc2cccnc2n2c(-c3cc(O[C@@H]4CCOC4)ccc3Cl)nnc12 [Example 23] | – | –
7330 nM | 3260 nM | – | 38 nM | 55 nM | Cc1nc2cccnc2n2c(-c3cc(OCC4CCOC4)ccc3Cl)nnc12 (stereo not shown) [Example 25] | – | –
– | 1380 nM | – | – | 116 nM | Cc1nc2cccnc2n2c(-c3cc(OCCCO)ccc3F)nnc12 [Example 26] | – | –
5100 nM | 2380 nM | – | 37 nM | 17 nM | COCCOc1ccc(Cl)c(-c2nnc3c(C)nc4ccc(C)nc4n23)c1 [Example 29] | – | –
2570 nM | 3920 nM | 2.17 h | 20 nM | 27 nM | Cc1ccc2nc(C)c3nnc(-c4cc(OC5CCC(F)(F)CC5)ccc4Cl)n3c2n1 [Example 30] | – | –
2900 nM | 1900 nM | – | 8 nM | 7 nM | COCCCOc1ccc(Cl)c(-c2nnc3c(C)nc4ccc(C)nc4n23)c1 [Example 31] | – | –
– | – | – | 5 nM | 4 nM | Cc1ccc2nc(C)c3nnc(-c4cc(OCCCOC(F)(F)F)ccc4Cl)n3c2n1 [Example 33] | – | –
– | – | 2.17 h | 17 nM | 9 nM | Cc1ccc2nc(C)c3nnc(-c4cc(OC[C@H](C)O)ccc4Cl)n3c2n1 [Example 34] | > 10000 nM | concentration at 0.5 h ([7]; brain, read-out: conc brain): 146 nM; concentration at 0.5 h ([7]; plasma, read-out: conc plasma): 223 nM; concentration at 0.5 h ([7]; read-out: conc CSF): 19 nM
– | – | 2.17 h | 17 nM | 9 nM | Cc1ccc2nc(C)c3nnc(-c4cc(OC[C@@H](C)O)ccc4Cl)n3c2n1 [Example 35] | – | –
– | – | – | 77 nM | 80 nM | Cc1nc2cccnc2n2c(-c3cc(OC4CCC(O)C4)ccc3Cl)nnc12 (stereo not shown) [Example 40] | – | –
